Data reported in US20230029496A1, “AMINO ACID ALTERNATIVE CURING SYSTEM” (THE TEXAS A&M UNIVERSITY SYSTEM, priority 2019, published 2023).
Values joined by “and” are separate entries in the source; they are usually repeats but may differ in a detail not shown here. Identical values can stand only once. “Also recorded” adds a separate entry of the source. Like-named read-outs stand apart in the source and are kept apart here. Marks after values point to notes of the source that are not given here.

Legend:
[1] = system: eNOS system
Method: Two (N=2) of these pork loins were cut into four sections (˜1 kg; 8 pieces total) and weighed prior to injection with the test brine solution (Table 8). Initial muscle pH was prior to injection before injection (10, 15, 20 or 25%) as well as brine pH was measured (Table 9). The test brine was manufactured for a targeted 25% injection level (Table 8) and was prepared on the day of manufacture to simulate a commercial ham cure containing water, sodium tri-polyphosphate, salt (NaCl), L-arginine, sodium erythorbate (NaE) and sugar. […] Brine percentages were calculated to simulate ingoing arginine of test tube trials (5569 ingoing arginine, 547 ppm NaE, 0.9% NaCl).
Samples were weighed before and after injection to ensure pickup percentage as close to the target weights of 10, 15, 20, and 25% pickup. Samples were vacuum packaged and held for two hours before thermal processing to simulate previous laboratory test tube trials.
After cooking and stabilization at room temperature, loin sections were sliced perpendicular to the long axis of the muscle fibers to determine if any nitrosylation (nitric oxide (NO) bound to myoglobin) occurred, resulting in the characteristic cured (pink) color. […] Based on an ingoing L-arginine brine concentration of 5545 ppm, there would be approximately 554, 830 and 1110 and 1385 ppm of ingoing L-arginine at 10, 15, 20 and 25% injection levels, respectively.

[2] = system: NOS system; assay: NO-heme, total heme, nitrosylation and cured color in test tube pork loin sausages (Example 11)
Text: (§1) Pork loins from a local meat distributor were procured on Mar. 18, 2019 and tested four weeks later on Apr. 18, 2019. A total of nine pounds of pork loins were split into thirds and ground through kidney, ½″, and ¼″ plates to make a restructured ham sausages formulated (Table 14) to contain either 1000 or 5000 ppm L-arginine which were stuffed in 2″ plastic casings and thermally processed. Three pounds of each grind size (9 pound batch) were mixed with high (5000 ppm), low (1000 ppm), or control (0 ppm) concentrations of brine at 25% addition using a Kitchen aid mixer. It was decided to lower the concentration of the L-arginine from 1500 ppm (Test 3) to 1000 ppm (Test 4) to verify that this concentration can generate acceptable levels of NO to develop cured color and residual nitrite for antioxidant and antimicrobial properties. Control and treatment met batches were stuffed in plastic casings in triplicate for each high, low, and control concentrations in one pound portions. […] The samples were tested for residual nitrite and nitroso-hemochromagen pigment (Table 14) one day after thermal processing cooking (April 19th to April 20th), then eight days after thermal processing on April 26th to determine any cure color fading and residual nitrite.

[3] = system: NOS system; assay: as above; remark: listed apart in the source
[4] = pH after immersion, pre- and post-rigor pork semimembranosus muscle (Example 13); assay type: physicochemical
[5] = system: eNOS system; assay: Whole muscle injection or immersion of pork loin/tenderloin with L-arginine test brine without phosphate (Example 9): pH and cured color
Method: Two (N=2) pork loins were procured from the same batch previously described (Mar. 18, 2019 pack date). […] Initial muscle pH was prior to and after injection/immersion and the brine pH was measured as well (Table 11). […] No sodium tri-polyphosphate was added to the brine, only water, salt, arginine, and sodium erythorbate in the same concentration/percentage used for prior benchtop laboratory tests. […] Phosphate was eliminated from the test brine to decrease pH to increase the likelihood of the L-arginine activating the eNOS system found within the meat.
Four (N=4) tenderloins fabricated from four pork loins (Mar. 18, 2019 pack date) were subjected to immersion curing by placing them into the remaining (leftover) test brine (no injection) for approximately 18 hr. were immersed in the remaining brine to simulate previous test tube trials.
After thermal processing, each sample was sliced to determine if any nitrosylation or cure color formation occurred. […] Even though phosphate was not included in the formulation the brine pH was still high. […] It appears that the concentration of L-arginine and the high brine pH may not be at the right amount/level to achieve the desired cured meat reaction. Based on these product failures, it was decided to go back to use the original protocol used in laboratory testing—but use a waterproof sausage casings to create a “pilot plant tube” to make sure the results seen in the laboratory could be replicated in a pilot plant setting.

[6] = system: NOS system; assay: Residual nitrite in test tube pork loin sausages (Example 11)
Text: as §1

[7] = pH after immersion, pre-rigor pork semimembranosus muscle (first study); assay type: physicochemical
[8] = system: nitric oxide synthase system; assay: Residual nitrite equivalency scale, key findings across all species (Example 26)
[9] = High (5000 ppm) L-arginine, one day after thermal processing
[10] = Low (1000 ppm) L-arginine, 8 days post thermal processing
[11] = Low (1000 ppm) L-arginine, one day after thermal processing
[12] = High (5000 ppm) L-arginine, 8 days post thermal processing
[13] = during 8 days of refrigerated vacuum packaged storage

## N=C(N)NCCC[C@H](N)C(=O)O [L-arginine]
[1]; 10% injection of test brine (Table 8)
  Injected Loin pH: 7.15 and 7.12
[1]; 15% injection of test brine (Table 8)
  Injected Loin pH: 7.09 and 7.08
[1]; 20% injection of test brine (Table 8)
  Injected Loin pH: 7.03 and 7.14
[1]; 25% injection of test brine (Table 8)
  Injected Loin pH: 7.18 and 7.09
[1]; after injection of test brine with sodium tri-polyphosphate
  increase of muscle pH: ~2.0 pH units
[1]; pork loin sections injected 10, 15, 20 or 25%, held two hours, cooked to 145° F.
  cured color formation after cooking: no observable cured color formation
[1]; test brine of Table 8: L-arginine 5545.41 ppm, with sodium tri-polyphosphate, salt, sugar, sodium erythorbate
  Brine pH: 10.55
[2]; [9]
  Total Heme: 22.21^a ppm
[2]; [10]
  NO-Heme: 12.95^a ppm
  Nitrosylation: 45.28^a %
[2]; [11]
  NO-Heme: 8.21^a ppm
  Total Heme: 22.21^a ppm
[2]; from the low to high concentrations, one day after thermal processing
  nitrosylation percentage: 37 to 60%
[2]; high concentration (5000 ppm) L-arginine
  cured color (FIG. 8): pink cured color formation
[2]; low concentration (1000 ppm) L-arginine
  cured color (FIG. 8): slight cured color
[3]; [12]
  NO-Heme: 14.59^a ppm
  Nitrosylation: 38.65^a %
  Total Heme: 37.4^a ppm
[3]; [9]
  NO-Heme: 13.43^b ppm
  Nitrosylation: 60.58^b %
[3]; [10]
  Total Heme: 28.56^b ppm
[3]; [11]
  Nitrosylation: 37.05^a %
[3]; [13]
  decrease in nitrosylation: 38-45%
[4]; 2 mM L-arginine, post rigor cooked
  pH after 2 hours of sample immersion: 5.77^a
[4]; 2 mM L-arginine, post rigor raw
  pH after 2 hours of sample immersion: 5.52^a
[4]; 2 mM L-arginine, pre-rigor cooked
  pH after 2 hours of sample immersion: 6.03^a
[4]; 2 mM L-arginine, pre-rigor raw
  pH after 2 hours of sample immersion: 5.94^a
[4]; 4 mM L-arginine, post rigor cooked
  pH after 2 hours of sample immersion: 5.75^a
[4]; 4 mM L-arginine, post rigor raw
  pH after 2 hours of sample immersion: 5.52^a
[4]; 4 mM L-arginine, pre-rigor cooked
  pH after 2 hours of sample immersion: 6.01^a
[4]; 4 mM L-arginine, pre-rigor raw
  pH after 2 hours of sample immersion: 6.04^a
[4]; 8 mM L-arginine, post rigor cooked
  pH after 2 hours of sample immersion: 5.66^a
[4]; 8 mM L-arginine, post rigor raw
  pH after 2 hours of sample immersion: 5.53^a
[4]; 8 mM L-arginine, pre-rigor cooked
  pH after 2 hours of sample immersion: 5.99^a
[4]; 8 mM L-arginine, pre-rigor raw
  pH after 2 hours of sample immersion: 5.93^a
[4]; 16 mM L-arginine, post rigor cooked
  pH after 2 hours of sample immersion: 5.75^a
[4]; 16 mM L-arginine, post rigor raw
  pH after 2 hours of sample immersion: 5.53^a
[4]; 16 mM L-arginine, pre-rigor cooked
  pH after 2 hours of sample immersion: 6.00^a
[4]; 16 mM L-arginine, pre-rigor raw
  pH after 2 hours of sample immersion: 5.91^a
[4]; 32 mM L-arginine, post rigor cooked
  pH after 2 hours of sample immersion: 5.76^a
[4]; 32 mM L-arginine, post rigor raw
  pH after 2 hours of sample immersion: 5.56^a
[4]; 32 mM L-arginine, pre-rigor cooked
  pH after 2 hours of sample immersion: 5.97^a
[4]; 32 mM L-arginine, pre-rigor raw
  pH after 2 hours of sample immersion: 5.93^a
[4]; range over pre- and post-rigor, raw and cooked, 0-32 mM
  sample pH after the immersion phase: 5.51-6.04
[5]; injected loin sections and immersion cured tenderloins, cooked to 145° F.
  nitrosylation or cure color formation after thermal processing: no color change
[5]; loin, 10% injection of test brine (Table 10)
  End pH: 5.56
[5]; loin, 15% injection of test brine (Table 10)
  End pH: 5.60
[5]; loin, 20% injection of test brine (Table 10)
  End pH: 5.62
[5]; loin, 25% injection of test brine (Table 10)
  End pH: 6.51
[5]; tenderloin, immersion in test brine (Table 10) approximately 18 hr
  End pH: 6.10 and 6.15 and 6.13 and 6.12
[5]; test brine of Table 10: L-arginine 5574.90 ppm, no phosphate
  Brine pH: 10.79
[6]; High (5000 ppm) L-arginine, 8 days post thermal processing, refrigerated vacuum packaged
  Nitrite: 48.12^a ppm
[6]; [9]
  Nitrite: 66.73^a ppm
[6]; Low (1000 ppm) L-arginine, 8 days post thermal processing, refrigerated vacuum packaged
  Nitrite: 37.78^a ppm
[6]; [11]
  Nitrite: 79.16^a ppm
[6]; [13]
  residual nitrite decrease: 20-30 ppm
[7]; 2 mM L-arginine, cooked
  pH after 2 hours of sample immersion: 5.88^a
[7]; 2 mM L-arginine, raw
  pH after 2 hours of sample immersion: 5.84^a
[7]; 4 mM L-arginine, cooked
  pH after 2 hours of sample immersion: 5.86^a
[7]; 4 mM L-arginine, raw
  pH after 2 hours of sample immersion: 5.85^a
[7]; 8 mM L-arginine, cooked
  pH after 2 hours of sample immersion: 5.87^a
[7]; 8 mM L-arginine, raw
  pH after 2 hours of sample immersion: 5.83^a
[7]; 16 mM L-arginine, cooked
  pH after 2 hours of sample immersion: 5.94^a
[7]; 16 mM L-arginine, raw
  pH after 2 hours of sample immersion: 5.88^a
[7]; 32 mM L-arginine, cooked
  pH after 2 hours of sample immersion: 6.05^a
[7]; 32 mM L-arginine, raw
  pH after 2 hours of sample immersion: 6.01^a
[7]; range over raw and cooked, 0-32 mM
  sample pH after the immersion phase: 5.83-6.05
[8]; L-arginine 1000, 2000 and 3000 ppm, with sodium erythorbate, except poultry at 200 ppm sodium nitrite
  residual nitrite values compared to sodium nitrite concentrations of 120, 156 and 200 ppm: comparable
[8]; L-arginine 4000 and 5000 ppm, with sodium erythorbate
  residual nitrite values compared to lower L-arginine concentrations: lower residual nitrite values
[8]; no cure accelerator (sodium erythorbate) included
  residual nitrite values compared to sodium nitrite treated samples: consistently lower; also recorded: lower residual nitrite values
L-arginine 3000 PPM, Day 1
  pH: 5.91
L-arginine 3000 PPM, Day 7
  pH: 5.86
L-arginine 3000 PPM, Day 14
  pH: 6.02
L-arginine 3000 PPM, Day 28
  pH: 6.06
L-arginine 4000 PPM, Day 1
  pH: 5.92
L-arginine 4000 PPM, Day 7
  pH: 5.90
L-arginine 4000 PPM, Day 14
  pH: 5.96
L-arginine 4000 PPM, Day 28
  pH: 6.00
L-arginine 5000 PPM, Day 1
  pH: 5.87
L-arginine 5000 PPM, Day 7
  pH: 5.92
L-arginine 5000 PPM, Day 14
  pH: 5.94
L-arginine 5000 PPM, Day 28
  pH: 6.01
